Values belong to the substance of their own block, whether it stands above or below them. No end group written: not given here.
What was measured:
hPTH-2 Receptor = biological target: T1, hPTH-2 Receptor (Homo sapiens, UniProt P49190); assay: cAMP stimulation in LLC-P2R-22 cells (LLC-PK1 stably transfected with hPTH-2 receptor); format: cell-based; details: LLC-P2R-22 cells (hPTH-2 Receptor)
T1 construct: expressed in transfected cells; host or cells: LLC-PK1 porcine kidney cells (clone given as hPR2-20, hPR2-22, LLC-P2R-22 or P2R-22)
Source text: (§1) Stably transfected derivatives of the porcine kidney cell line LLC-PK1, HKRK-B7 (Takasu, H., et al., J. Bone Miner. Res. 14:11-20 (1999)) and hPR2-20, express the human PTH-1 and human PTH-2 receptors respectively. The HKRK-B7 LLC-PK1 cell line expresses the hPTH-1 receptor at ˜1×10^6 receptors/cell (Takasu, H., et al., J. Bone Miner. Res. 14:11-20 (1999)), and the hPR2-22 LLC-PK1 cell line expresses the hPTH-2 receptor at ˜0.8×10^6 receptors/cell (provided by H. Takasu and F. R. Bringhurst, Endocrine Unit, Massachusetts General Hospital).
(§2) Stimulation of cells with peptide analogs was performed in 24-well plates. Cells were rinsed with 0.5 mL of binding buffer and treated with 200 μL of cAMP assay buffer (Dulbecco's modified Eagle's medium containing 2 mM 3-isobutyl-1-methylxanthine, 1 mg/mL bovine serum albumin, 35 mM Hepes-NaOH, pH 7.4) and 100 μL of binding buffer containing varying amounts of peptide analog (final volume=300 μL). The medium was removed after incubation for 1 h at room temperature, and the cells were frozen (−80° C.), lysed with 0.5 mL 50 mM HCl, and refrozen (−80° C.). The cAMP content of the diluted lysate was determined by radioimmunoassay. Where possible, cAMP EC50 and Maximum response values were determined using nonlinear regression (see below).
(§3) Intracellular cAMP accumulation may be measured as described by Abou-Samra et al., J. Biol. Chem. 262:1129, 1986) or other methods known to those of skill in the art. Intracellular cAMP is extracted by thawing the cells in 1 ml of 50 mM HCl and analyzed by a specific radioimmunoassay using an anti-cAMP antibody (e.g., Sigma, St. Louis, Mo.). A cAMP analog (2′-O-monosuccinyl-adenosine 3′:5′-cyclic monophosphate tyrosyl methyl ester, obtained from Sigma) which is used as a tracer for cAMP is iodinated by the chloramine T method. Free iodine is removed by adsorbing the iodinated cAMP analog onto a C18 Sep-pak cartridge (Waters, Milford, Mass.). After washing with dH2O, the iodinated cAMP analog is eluted from the Sep-pak Cartridge with 40% acetonitrille (ACN) and 0.1% trifluoroacetic acid (TFA). The iodinated cAMP analog is lyophilized, reconstituted in 1 ml 0.1% TFA, and injected into a C18 reverse phase HPLC column (Waters). The column is equilibrated with 10% ACN in 0.1% TFA, and eluted with gradient of 10-30% ACN in 0.1% TFA. This allows separation of the mono-iodinated cAMP analog from the non-iodinated cAMP analog. The tracer is stable for up to 4 months when stored at −20° C. The standard used for the assay, adenosine 3′:5′-cyclic monophosphate, is purchased from Sigma. Samples (1-10 µl of HCl extracts) or standards (0.04-100 fmol/tube) are diluted in 50 mM Na-acetate (pH 5.5), and acetylated with 10 μl of mixture of triethylamine and acetic anhydride (2:1 vol:vol). After acetylation, cAMP antiserum (100 μl) is added from a stock solution (1:4000) made in PBS (pH 7.4), 5 mM EDTA and 1% normal rabbit serum. The tracer is diluted in PBS (pH 7.4) with 0.1% BSA, and added (20,000 cpm/tube). The assay is incubated at 4° C. overnight. The bound tracer is precipitated by adding 100 μl of goat anti-rabbit antiserum (1:20 in PBS) and 1 ml of 7% polyethyleneglycol (MW 5000-6000), centrifuging at 2000 rpm for 30 min. at 4° C. The supernatant is removed and the bound radioactivity is counted in a gamma-counter (Micromedic). To compute the cAMP data, logit calculations were performed in Excel spreadsheets. Typically, the assay sensitivity is 0.1 fmol/tube, and the standard concentration that displaces 50% of tracer is 5 fmol/tube.
(§4) All calculations were performed using Microsoft Excel. Nonlinear regression analysis of cAMP stimulation data was performed using parameters, defined as the Minimum, Maximum, Emax, midpoint (EC50), and slope of the response curve. The predicted response (yp) for a given dose (x) of peptide was calculated using the following equation: yp=Min+[(Max−Min)/(1+(EC50/x)^slope)]. […]

PTH-1 receptor [1] = biological target: T2, PTH-1 receptor (Homo sapiens, UniProt Q03431); assay: cAMP stimulation in HKRK-B7 cells (LLC-PK1 stably transfected with hPTH-1 receptor); format: cell-based; design: expressed in transfected cells; host or cells: LLC-PK1 porcine kidney cells, clone HKRK-B7; details: for cAMP signaling activity (in words) / Emax: HKRK-B7 cells; for cAMP signaling activity (in words): dose-response; for Emax: Emax constrained to ±1 SD of rPTH(1-34) response at 100 nM
T2 sequence (Q03431 27-593): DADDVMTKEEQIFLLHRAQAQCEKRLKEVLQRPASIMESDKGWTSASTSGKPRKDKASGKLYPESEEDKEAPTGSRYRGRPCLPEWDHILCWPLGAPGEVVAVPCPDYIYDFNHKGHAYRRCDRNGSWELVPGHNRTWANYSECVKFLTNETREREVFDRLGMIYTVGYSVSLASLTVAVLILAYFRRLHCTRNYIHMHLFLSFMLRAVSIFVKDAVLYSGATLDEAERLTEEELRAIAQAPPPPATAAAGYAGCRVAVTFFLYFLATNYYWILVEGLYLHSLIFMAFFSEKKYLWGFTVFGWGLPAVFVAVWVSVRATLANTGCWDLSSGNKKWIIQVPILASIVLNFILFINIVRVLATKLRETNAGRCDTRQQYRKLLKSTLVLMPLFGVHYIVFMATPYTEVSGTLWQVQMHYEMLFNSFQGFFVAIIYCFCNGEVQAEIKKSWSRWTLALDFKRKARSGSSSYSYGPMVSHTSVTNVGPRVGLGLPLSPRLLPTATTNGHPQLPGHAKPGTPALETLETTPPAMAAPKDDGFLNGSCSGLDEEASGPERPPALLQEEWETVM
Source text: as §1, §2, §3, §4

[2] = biological target: T3, rat PTH-1 receptor (endogenous, ROS 17/2.8 cells) (Rattus norvegicus, UniProt P25961); assay: cAMP response in osteoblastic ROS 17/2.8 cells; format: cell-based; details: ROS 17/2.8 cells
T3 construct: The rat osteoblastic cell line ROS 17/2.8; endogenous in cells; host or cells: ROS 17/2.8 rat osteoblastic cells
T3 sequence (P25961 27-591): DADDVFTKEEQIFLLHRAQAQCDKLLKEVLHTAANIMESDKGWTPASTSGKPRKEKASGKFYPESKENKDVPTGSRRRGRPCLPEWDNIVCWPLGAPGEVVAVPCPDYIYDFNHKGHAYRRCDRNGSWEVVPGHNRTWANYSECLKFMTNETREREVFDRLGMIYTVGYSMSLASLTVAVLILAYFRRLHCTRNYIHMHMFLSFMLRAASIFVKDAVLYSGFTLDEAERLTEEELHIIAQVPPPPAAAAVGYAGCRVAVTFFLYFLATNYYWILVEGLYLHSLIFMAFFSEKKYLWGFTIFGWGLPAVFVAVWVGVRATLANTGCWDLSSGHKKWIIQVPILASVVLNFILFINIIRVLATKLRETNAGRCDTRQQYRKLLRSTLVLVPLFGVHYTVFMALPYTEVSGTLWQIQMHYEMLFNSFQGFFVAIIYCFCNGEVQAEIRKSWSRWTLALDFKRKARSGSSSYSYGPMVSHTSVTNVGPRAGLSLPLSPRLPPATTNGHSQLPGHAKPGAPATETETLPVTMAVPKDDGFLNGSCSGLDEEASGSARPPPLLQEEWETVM
Experimental: The rat osteoblastic cell line ROS 17/2.8 (Majeska, R. J., et al, Endocrinology 107:1494-1503 (1980)) expresses endogenous PTH-1 receptors at levels of 80,000 per cell and the human osteoblastic cell line, SAOS-2, express endogenous PTH-1 receptors at levels of ˜30,000 per cell.
as §2
All calculations were performed using Microsoft Excel. Nonlinear regression analysis of cAMP stimulation data was performed using parameters, defined as the Minimum, Maximum, Emax, midpoint (EC50), and slope of the response curve. The predicted response (yp) for a given dose (x) of peptide was calculated using the following equation: yp=Min+[(Max−Min)/(1+(EC50/x)^slope)]. The initial parameter values were estimated from the primary data, and the Excel “Solver function” was then used to vary the four parameters in order to minimize the differences between the predicted and actual responses (least-squares method) (Bowen, W., & Jerman, J., Trends in Pharmacol. Sci. 16:413-417 (1995)). The statistical significance between two data sets was determined using a one-tailed Student's t-test, assuming unequal variances for the two sets.

PTH-1 receptor [3] = biological target: T2, PTH-1 receptor; design: expressed in transfected cells; host or cells: LLC-PK1 porcine kidney cells, clone HKRK-B7; details: HKRK-B7 cells; Luck et al. 1999; cited from earlier work
[4] = test system: truncated PTH-1 receptor rP1R-ΔNt; details: truncated rat PTH receptor vs intact rPTH-1 receptor; Luck et al. 1999; cited from earlier work
[5] = subcutaneous, in combination with oral estrogen, postmenopausal osteoporosis; cited from earlier work
PTH-1 receptor [6] = biological target: T2, PTH-1 receptor; details: literature; cited from earlier work
[7] = biological target: T4, cloned rat PTH-1 receptor (Rattus norvegicus, UniProt P25961); details: CHO cells, Azurani 1996; cited from earlier work
T4 construct: host or cells: CHO cells
T4 sequence (P25961 27-591): T3 sequence (P25961 27-591)

rat renal membranes = details: Rosenblatt 1981; cited from earlier work

T1 sequence (P49190 25-550): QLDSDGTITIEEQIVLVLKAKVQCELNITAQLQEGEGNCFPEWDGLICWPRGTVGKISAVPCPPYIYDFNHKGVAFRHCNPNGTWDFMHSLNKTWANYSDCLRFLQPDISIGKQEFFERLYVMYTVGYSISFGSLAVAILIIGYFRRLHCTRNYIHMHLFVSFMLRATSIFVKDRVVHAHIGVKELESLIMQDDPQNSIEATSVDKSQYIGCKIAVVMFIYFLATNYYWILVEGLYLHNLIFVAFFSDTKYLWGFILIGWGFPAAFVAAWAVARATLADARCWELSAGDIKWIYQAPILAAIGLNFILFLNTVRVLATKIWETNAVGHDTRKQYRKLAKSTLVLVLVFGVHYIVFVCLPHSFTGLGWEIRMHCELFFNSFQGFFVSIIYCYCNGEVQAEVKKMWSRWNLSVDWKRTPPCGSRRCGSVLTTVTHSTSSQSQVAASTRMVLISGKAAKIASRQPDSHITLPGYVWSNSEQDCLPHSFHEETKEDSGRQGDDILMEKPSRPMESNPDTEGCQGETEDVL

Emax (hPTH-2 Receptor): 501 picomole/well | cAMP signaling activity (in words) (PTH-1 receptor [1]): signaling activity was readily observed | Emax (PTH-1 receptor [1]): 238 ± 9 picomole/well
Substance: AVAEIQLMHARA-NH2 [compound 5, AlaValAlaGluIleGlnLeuMetHisAlaArgAla-amide]

Emax (hPTH-2 Receptor): 501 picomole/well | cAMP signaling activity (in words) (PTH-1 receptor [1]): signaling activity was readily observed | Emax (PTH-1 receptor [1]): 239 ± 7 picomole/well
Substance: AVAEIQLMHARAK-NH2 [compound 4, AlaValAlaGluIleGlnLeuMetHisAlaArgAlaLys-amide]

Emax [2]: 382 picomole/well | Emax (PTH-1 receptor [1]): 262 ± 9 picomole/well | fold more potent than native PTH(1-14) (PTH-1 receptor [1]; LLC-PK1 cells stably expressing hPTH-1 receptor, cAMP): 220 fold
Substance: AVAEIQLMHARAKW-NH2 [Peptide #2, AlaValAlaGluIleGlnLeuMetHisAlaArgAlaLysTrp-amide]

Emax (PTH-1 receptor [1]): 235 ± 3 picomole/well
Substance: AVAEIQLMHQRAKH-NH2 [compound 3, AlaValAlaGluIleGlnLeuMetHisGlnArgAlaLysHis-amide]

Substance: PTH(1-9) (AVSEIQLMH-NH2; UniProt P04089 32-40, looked up, fragment) [native rat PTH fragment analog]
cAMP response of native rat PTH fragments (in words) (PTH-1 receptor [3]): little or no cAMP response

Substance: PTH(1-10) (AVSEIQLMHN-NH2; UniProt P04089 32-41, looked up, fragment) [native rat PTH fragment analog]
cAMP response of native rat PTH fragments (in words) (PTH-1 receptor [3]): little or no cAMP response

Substance: PTH(1-11) (AVSEIQLMHNL-NH2; UniProt P04089 32-42, looked up, fragment) [native rat PTH fragment analog]
cAMP response of native rat PTH fragments (in words) (PTH-1 receptor [3]): little or no cAMP response

Substance: PTH(1-12) (AVSEIQLMHNLG-NH2; UniProt P04089 32-43, looked up, fragment) [native rat PTH fragment analog]
cAMP response of native rat PTH fragments (in words) (PTH-1 receptor [3]): little or no cAMP response

Substance: PTH(1-13) (AVSEIQLMHNLGK-NH2; UniProt P04089 32-44, looked up, fragment) [native rat PTH fragment analog]
cAMP response of native rat PTH fragments (in words) (PTH-1 receptor [3]): little or no cAMP response

Substance: PTH(1-34)
fold weaker with the truncated receptor than with the intact receptor [4]: 1000 fold | bone density [5]: increases in bone density

Substance: PTH(15-34)
cAMP response (PTH-1 receptor [6]): inactive

Substance: PTHrP(1-16) (AVSEHQLLHDKGKSIQ; Parathyroid hormone-related protein; UniProt P12272 37-52, looked up, fragment) [short NH2-terminal PTHrP peptide from the literature]
AC activity [7]: inactive

cAMP signaling activity (in words) (PTH-1 receptor [1]): elicited some activity
Substance: [A3,Q10]rPTH(1-10) (AVAEIQLMHQ-NH2)

Substance: bPTH(1-12) (AVSEIQFMHNLG; Parathyroid hormone; UniProt P01268 32-43, looked up, fragment) [short NH2-terminal PTH peptide from the literature]
adenyl cyclase activity (rat renal membranes): inactive

From patent US8568736B2, “Polypeptide derivatives of parathyroid hormone (PTH)” (The General Hospital Corporation, priority 1999, dated 2013)
